What was measured:
Assay type in all cases: cell-based
Human GPR40 [1] = biological target: T1, Human GPR40 (Homo sapiens, UniProt O14842); test: Inositol Phosphate Turnover (IP1) Assay 2; parameters: expressed in transfected cells; host or cells: HEK cells stably expressing the aequorin reporter; conditions: HEK cells stably expressing human GPR40, 384-well, CisBio IP-One kit
Procedure: The assay was performed in 384-well format. HEK cells stably expressing human GPR40 were plated at 15,000 cells per well in growth medium (DMEM/10% fetal calf serum). Cell plates were then incubated 16 hours at 37 degrees in a 5% CO2 incubator.
Measurement of Inositol Phosphate Turnover (IP1) was performed using the CisBio IP-One kit (Part number 62IPAPEB). After the 16 hour incubation, the cells were washed with HEPES buffer and 10 ul of stimulation buffer (prepared as described in the kit) was added to each well. In a separate plate, compounds were diluted in DMSO (400-fold over the final concentration in the assay well) and 25 nl was acoustically transferred to the appropriate well in the assay cell plate. The plates were then incubated for 60 minutes at 37 degrees. 10 ul of detection buffer (also prepared as described in the IP-One kit) was added to each well and the plates were incubated for 60 minutes in the dark. The plates were then read in a Perkin Elmer EnVision or equivalent reader able to measure FRET. Fluorescent ratio of emission at 665 and 620 nm was then converted to IP1 concentration by back calculating from an IP1 standard curve prepared at the time of the assay.

Human GPR40 [2] = biological target: T1, Human GPR40; test: Inositol Phosphate Turnover (IP1) Assay 1; parameters: expressed in transfected cells; host or cells: HEK cells stably expressing the aequorin reporter; conditions: HEK cells stably expressing human GPR40, 96-well, 3H-inositol labeling, SPA beads
Procedure: (§1) Human and mouse GPR40 stable cell-lines were generated in CHO cells stably expressing NFAT BLA (Beta-lactamase). A human GPR40 stable cell-line was generated in HEK cells stably expressing the aequorin expressing reporter. The expression plasmids were transfected using lipofectamine (Life Technologies) following manufacturer's instructions. Stable cell-lines were generated following drug selection.
The assay was performed in 96-well format. HEK cells stably expressing human GPR40 were plated to be 60-80% confluent within 72 h. After 72 h, the plates were aspirated and the cells washed with inositol-free DMEM (ICN). The wash media was replaced with 150 μL of 3H-inositol labeling media (inositol-free media containing 0.4% human albumin or 0.4% mouse albumin, 1× pen/strep antibiotics, glutamine, 25 mM HEPES to which was added 3H-myo-inositol NEN #NET114A 1 mCi/mL, 25 Ci/mmol diluted 1:150 in loading media with a final specific radioactivity of 1 μCi/150 μL). Alternatively, the human and mouse albumin can be added after the overnight labeling step before the addition of LiCl.
The assay was typically run the next day after 18 h labeling. On the day of the assay, 5 μL of 300 mM LiCl was added to all wells and incubated at 37 degrees for 20 min 0.75 μL of 200× compounds were added and incubated with the cells for 60 min at 37 degrees. The media was then aspirated off and the assay terminated with the addition of 60 μL 10 mM formic acid. The cells were lysed for 60 min at room temperature. 15-30 μL of lysate was mixed with 70 μL/1 mg YSi SPA beads (Amersham) in clear bottom Isoplates. The plates were shaken for 2 h at room temperature. Beads were allowed to settle and the plates were counted in the Wallac Microbeta.

Human GPR40 [3] = biological target: T1, Human GPR40; test: FLIPR assay (agonist-induced calcium mobilization); parameters: expressed in transfected cells; conditions: GPR40/CHO NFAT BLA cells
Procedure: as §1
FLIPR (Fluorimetric Imaging Plate Reader, Molecular Devices) assays were performed to measure agonist-induced calcium mobilization of the stable clones. For the FLIPR assay, one day before assay, GPR40/CHO NFAT BLA cells were seeded into black-wall-clear-bottom 384-well plates (Costar) at 1.4×10e4 cells/20 μL medium/well. The cells were incubated with 20 μl/well of the assay buffer (HBSS, 0.1% BSA, 20 mM HEPES, 2.5 mM probenecid, pH 7.4) containing 8 μM fluo-4, AM, 0.08% pluronic acid at room temperature for 100 minutes. Fluorescence output was measured using FLIPR. Compounds were dissolved in DMSO and diluted to desired concentrations with assay buffer. 13.3 μL/well of compound solution was added.

T1 sequence (O14842 whole entry): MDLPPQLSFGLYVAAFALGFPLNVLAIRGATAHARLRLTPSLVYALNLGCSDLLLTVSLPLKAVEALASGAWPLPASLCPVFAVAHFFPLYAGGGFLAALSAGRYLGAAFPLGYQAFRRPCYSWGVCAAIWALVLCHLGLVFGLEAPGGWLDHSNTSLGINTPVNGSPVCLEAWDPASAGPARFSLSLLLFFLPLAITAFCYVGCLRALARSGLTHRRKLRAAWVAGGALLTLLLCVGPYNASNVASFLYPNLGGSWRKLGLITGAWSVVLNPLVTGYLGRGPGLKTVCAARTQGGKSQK

SMILES	EC50 (Human GPR40 [1])	EC50 (Human GPR40 [2])	EC50 (Human GPR40 [3])
Cc1cc(CCC(C)(O)CO)cc(C)c1-c1cc(COc2cc3c(cn2)[C@H]2[C@@H](C3)[C@@H]2C(=O)O)c(F)cc1F (stereo partly drawn) [Example 23, (5aR,6S,6aS)-3-((4′-(3,4-dihydroxy-3-methylbutyl)-4,6-difluoro-2′,6′-dimethyl-[1,1′-biphenyl]-3-yl)methoxy)-5,5a,6,6a-tetrahydrocyclopropa[4,5]cyclopenta[1,2-c]pyridine-6-carboxylic acid]	5.2 nM	–	–
Cc1cc(OCC[C@H](O)CO)cc(C)c1-c1cc(COc2cc3c(cn2)[C@H]2[C@@H](C3)[C@@H]2C(=O)O)c(F)cc1F [Example 24, Sodium (5aR,6S,6aS)-3-((4′-((S)-3,4-dihydroxybutoxy)-4,6-difluoro-2′,6′-dimethyl-[1,1′-biphenyl]-3-yl)methoxy)-5,5a,6,6a-tetrahydrocyclopropa[4,5]cyclopenta[1,2-c]pyridine-6-carboxylate]	1.3 nM	4.6 nM	–
Cc1cc(OCCC(C)(O)CO)cc(C)c1-c1cc(COc2cc3c(cn2)[C@H]2[C@@H](C3)[C@@H]2C(=O)O)c(F)cc1F (stereo partly drawn) [Example 19, (5aR,6S,6aS)-3-((4′-(3,4-dihydroxy-3-methyl-butoxy)-4,6-difluoro-2′,6′-dimethyl-[1,1′-biphenyl]-3-yl)methoxy)-5,5a,6,6a-tetrahydro-cyclopropa[4,5]-cyclopenta[1,2-c] pyridine-6-carboxylic acid]	1.6 nM	–	–
Cc1nc(OCCC(C)(O)CO)ccc1-c1cc(COc2cc3c(cn2)[C@H]2[C@@H](C3)[C@@H]2C(=O)O)c(F)cc1C(F)(F)F (stereo partly drawn) [Example 20, (5aR,6S,6aS)-3-((5-(6-(3,4-dihydroxy-3-methyl-butoxy)-2-methylpyridin-3-yl)-2-fluoro-4-(tri-fluoro-methyl)benzyl)-oxy)-5,5a,6,6a-tetra-hydro-cyclopropa[4,5]-cyclopenta[1,2-c]-pyridine-6-carboxylic acid]	3.1 nM	–	–
Cc1cc(OCCC(C)(O)C(F)F)nc(C)c1-c1cc(COc2cc3c(cn2)C2[C@@H](C3)[C@@H]2C(=O)O)c(F)cc1F (stereo in doubt) [Example 17, (5aR,6S,6aR)-3-((5-(6-(4,4-difluoro-3-hydroxy-3-methyl-butoxy)-2,4-di-methylpyridin-3-yl)-2,4-difluorobenzyl)oxy)-5,5a,6,6a-tetra-hydrocyclopropa[4,5] cyclopenta[1,2-c] pyridine-6-carboxylic acid]	2.1 nM	–	–
Cc1cc(OCC(C(C)(C)O)C(C)(C)O)cc(C)c1-c1cc(COc2cc3c(cn2)[C@H]2[C@@H](C3)[C@@H]2C(=O)O)c(F)cc1F [Example 22, (5aR,6S,6aS)-3-((4,6-difluoro-4′-(3-hydroxy-2-(2-hydroxypropan-2-yl)-3-methylbutoxy)-2′,6′-dimethyl-[1,1′-biphenyl]-3-yl)methoxy)-5,5a,6,6a-tetrahydrocyclopropa[4,5]cyclopenta[1,2-c]pyridine-6-carboxylic acid]	3.1 nM	–	–
CC(C)(O)CCOc1ccc(-c2cc(COc3cc4c(cn3)[C@H]3[C@@H](C4)[C@@H]3C(=O)O)c(F)cc2C(F)(F)F)c(F)c1 [Example 7, (5aR,6S,6aS)-3-((2′,4-difluoro-4′-(3-hydroxy-3-methylbutoxy)-6-(trifluoro-methyl)-[1,1′-biphenyl]-3-yl)methoxy)-5,5a,6,6a-tetrahydrocyclopropa [4,5]cyclopenta[1,2-c] pyridine-6-carboxylic acid]	–	11.4 nM	11.2 nM
Cc1cc(OCC[C@@H](O)CO)cc(C)c1-c1cc(COc2cc3c(cn2)[C@H]2[C@@H](C3)[C@@H]2C(=O)O)c(F)cc1F [Example 25, (5aR,6S,6aS)-3-((4′-((R)-3,4-dihydroxy-butoxy)-4,6-difluoro-2′,6′-dimethyl-[1,1′-biphenyl]-3-yl)methoxy)-5,5a,6,6a-tetrahydrocyclo-propa[4,5]cyclopenta [1,2-c]pyridine-6-carboxylic acid]	3.8 nM	4.7 nM	–
C[C@@](O)(CO)CCOc1ccc(-c2cc(COc3cc4c(cn3)[C@H]3[C@@H](C4)[C@@H]3C(=O)O)c(F)cc2F)c(Cl)c1 [Example 21, (5aR,6S,6aS)-3-((2′-chloro-4′-((S)-3,4-dihydroxy-3-methyl-butoxy)-4,6-di-fluoro-[1,1′-biphenyl]-3-yl)methoxy)-5,5a,6,6a-tetrahydrocyclopropa [4,5]cyclopenta[1,2-c] pyridine-6-carboxylic acid]	2.2 nM	–	–
CC(C)(O)CCOc1ccc(-c2cc(COc3cc4c(cn3)[C@H]3[C@@H](C4)[C@@H]3C(=O)O)c(F)cc2C(F)(F)F)cc1F [Example 6, (5aR,6S,6aS)-3-((3′,4-difluoro-4′-(3-hydroxy-3-methyl-butoxy)-6-(trifluoro-methyl)-[1,1′-biphenyl]-3-yl)methoxy)-5,5a,6,6a-tetrahydrocyclopropa [4,5]cyclopenta[1,2-c] pyridine-6-carboxylic acid]	–	14.7 nM	10.9 nM
Cc1cc(OCC[C@@H](O)CO)c(F)cc1-c1cc(COc2cc3c(cn2)[C@H]2[C@@H](C3)[C@@H]2C(=O)O)c(F)cc1Cl [Example 26, (5aR,6S,6aS)-3-((6-chloro-4′-((R)-3,4-dihydroxybutoxy)-4,5,-difluoro-2′-methyl-[1,1′-biphenyl]-3-yl)methoxy)-5,5a,6,6a-tetrahydrocyclo-propa[4,5]cyclopenta [1,2-c]pyridine-6-carboxylic acid]	0.7 nM	–	–

From patent US9932311B2, “Antidiabetic tricyclic compounds” (Merck Sharp & Dohme Corp., priority 2013, dated 2018)
